Results reported in ChEMBL document CHEMBL4715724, “Novel 5-substituted-2-anilinoquinolines with 3-(morpholino or 4-methylpiperazin-1-yl)propoxy moiety as broad spectrum antiproliferative agents: Synthesis, cell based assays and kinase screening” (Bioorg Med Chem Lett, 2016).
Each block holds one compound with its values, some of them ahead of it.

How the values were obtained:
[1] = test system: CCRF-CEM; assay: cells; type: functional; details: Homo sapiens, time 48 hrs
Description: Growth inhibition of human CCRF-CEM cells incubated for 48 hrs by sulforhodamine B assay

[2] = test system: K562; assay: cells; type: functional; details: Homo sapiens, time 48 hrs
Description: Growth inhibition of human K562 cells incubated for 48 hrs by sulforhodamine B assay

[3] = test system: A549; assay: cells; type: functional; details: Homo sapiens, time 48 hrs
Description: Growth inhibition of human A549/ATCC cells incubated for 48 hrs by sulforhodamine B assay

[4] = test system: HOP-62; assay: cells; type: functional; details: Homo sapiens, time 48 hrs
Description: Growth inhibition of human HOP-62 cells incubated for 48 hrs by sulforhodamine B assay

[5] = test system: HOP-92; assay: cells; type: functional; details: Homo sapiens, time 48 hrs
Description: Growth inhibition of human HOP-92 cells incubated for 48 hrs by sulforhodamine B assay

[6] = test system: NCI-H226; assay: cells; type: functional; details: Homo sapiens, time 48 hrs
Description: Growth inhibition of human NCI-H226 cells incubated for 48 hrs by sulforhodamine B assay

[7] = test system: NCI-H23; assay: cells; type: functional; details: Homo sapiens, time 48 hrs
Description: Growth inhibition of human NCI-H23 cells incubated for 48 hrs by sulforhodamine B assay

[8] = test system: NCI-H322M; assay: cells; type: functional; details: Homo sapiens, time 48 hrs
Description: Growth inhibition of human NCI-H322M cells incubated for 48 hrs by sulforhodamine B assay

[9] = test system: NCI-H460; assay: cells; type: functional; details: Homo sapiens, time 48 hrs
Description: Growth inhibition of human NCI-H460 cells incubated for 48 hrs by sulforhodamine B assay

[10] = test system: NCI-H522; assay: cells; type: functional; details: Homo sapiens, time 48 hrs
Description: Growth inhibition of human NCI-H522 cells incubated for 48 hrs by sulforhodamine B assay

[11] = test system: HCT-116; assay: cells; type: functional; details: Homo sapiens, time 48 hrs
Description: Growth inhibition of human HCT-116 cells incubated for 48 hrs by sulforhodamine B assay

[12] = test system: HCT-15; assay: cells; type: functional; details: Homo sapiens, time 48 hrs
Description: Growth inhibition of human HCT-15 cells incubated for 48 hrs by sulforhodamine B assay

[13] = test system: HT-29; assay: cells; type: functional; details: Homo sapiens, time 48 hrs
Description: Growth inhibition of human HT-29 cells incubated for 48 hrs by sulforhodamine B assay

[14] = test system: KM12; assay: cells; type: functional; details: Homo sapiens, time 48 hrs
Description: Growth inhibition of human KM12 cells incubated for 48 hrs by sulforhodamine B assay

[15] = test system: SF-295; assay: cells; type: functional; details: Homo sapiens, time 48 hrs
Description: Growth inhibition of human SF-295 cells incubated for 48 hrs by sulforhodamine B assay

[16] = test system: U-251; assay: cells; type: functional; details: Homo sapiens, time 48 hrs
Description: Growth inhibition of human U-251 cells incubated for 48 hrs by sulforhodamine B assay

[17] = test system: LOX IMVI; assay: cells; type: functional; details: Homo sapiens, time 48 hrs
Description: Growth inhibition of human LOX IMVI cells incubated for 48 hrs by sulforhodamine B assay

[18] = test system: SK-MEL-28; assay: cells; type: functional; details: Homo sapiens, time 48 hrs
Description: Growth inhibition of human SK-MEL-28 cells incubated for 48 hrs by sulforhodamine B assay

[19] = test system: UACC-257; assay: cells; type: functional; details: Homo sapiens, time 48 hrs
Description: Growth inhibition of human UACC-257 cells incubated for 48 hrs by sulforhodamine B assay

[20] = test system: UACC-62; assay: cells; type: functional; details: Homo sapiens, time 48 hrs
Description: Growth inhibition of human UACC-62 cells incubated for 48 hrs by sulforhodamine B assay

[21] = test system: IGROV-1; assay: cells; type: functional; details: Homo sapiens, time 48 hrs
Description: Growth inhibition of human IGROV-1 cells incubated for 48 hrs by sulforhodamine B assay

[22] = test system: OVCAR-3; assay: cells; type: functional; details: Homo sapiens, time 48 hrs
Description: Growth inhibition of human OVCAR-3 cells incubated for 48 hrs by sulforhodamine B assay

[23] = test system: OVCAR-4; assay: cells; type: functional; details: Homo sapiens, time 48 hrs
Description: Growth inhibition of human OVCAR-4 cells incubated for 48 hrs by sulforhodamine B assay

[24] = test system: OVCAR-8; assay: cells; type: functional; details: Homo sapiens, time 48 hrs
Description: Growth inhibition of human OVCAR-8 cells incubated for 48 hrs by sulforhodamine B assay

[25] = test system: A498; assay: cells; type: functional; details: Homo sapiens, time 48 hrs
Description: Growth inhibition of human A498 cells incubated for 48 hrs by sulforhodamine B assay

[26] = test system: RXF 393; assay: cells; type: functional; details: Homo sapiens, time 48 hrs
Description: Growth inhibition of human RXF 393 cells incubated for 48 hrs by sulforhodamine B assay

[27] = test system: TK-10; assay: cells; type: functional; details: Homo sapiens, time 48 hrs
Description: Growth inhibition of human TK-10 cells incubated for 48 hrs by sulforhodamine B assay

[28] = test system: UO-31; assay: cells; type: functional; details: Homo sapiens, time 48 hrs
Description: Growth inhibition of human UO-31 cells incubated for 48 hrs by sulforhodamine B assay

[29] = test system: PC-3; assay: cells; type: functional; details: Homo sapiens, time 48 hrs
Description: Growth inhibition of human PC-3 cells incubated for 48 hrs by sulforhodamine B assay

[30] = test system: MCF7; assay: cells; type: functional; details: Homo sapiens, time 48 hrs
Description: Growth inhibition of human MCF7 cells incubated for 48 hrs by sulforhodamine B assay

[31] = test system: MDA-MB-231; assay: cells; type: functional; details: Homo sapiens, time 48 hrs
Description: Growth inhibition of human MDA-MB-231/ATCC cells incubated for 48 hrs by sulforhodamine B assay

[32] = test system: Hs-578T; assay: cells; type: functional; details: Homo sapiens, time 48 hrs
Description: Growth inhibition of human Hs-578T cells incubated for 48 hrs by sulforhodamine B assay

[33] = test system: MDA-MB-468; assay: cells; type: functional; details: Homo sapiens, time 48 hrs
Description: Growth inhibition of human MDA-MB-468 cells incubated for 48 hrs by sulforhodamine B assay

[34] = test system: Panel leukemia (Carcinoma cell lines); assay: cells; type: functional; details: Homo sapiens, time 48 hrs
Description: Growth inhibition of human Panel leukemia (Carcinoma cell lines) incubated for 48 hrs by sulforhodamine B assay

[35] = cells; type: functional; details: Homo sapiens, Non-small cell lung cancer cell line; time 48 hrs
Description: Growth inhibition of human Non-small cell lung cancer cell line incubated for 48 hrs by sulforhodamine B assay

[36] = test system: Panel colon (Carcinoma cell lines); assay: cells; type: functional; details: Homo sapiens, time 48 hrs
Description: Growth inhibition of human Panel colon (Carcinoma cell lines) incubated for 48 hrs by sulforhodamine B assay

[37] = test system: Panel CNS (Carcinoma cell lines); assay: cells; type: functional; details: Homo sapiens, time 48 hrs
Description: Growth inhibition of human Panel CNS (Carcinoma cell lines) incubated for 48 hrs by sulforhodamine B assay

[38] = test system: Panel melanoma (Carcinoma cell lines); assay: cells; type: functional; details: Homo sapiens, time 48 hrs
Description: Growth inhibition of human Panel melanoma (Carcinoma cell lines) incubated for 48 hrs by sulforhodamine B assay

[39] = test system: Panel ovarian (Carcinoma cell lines); assay: cells; type: functional; details: Homo sapiens, time 48 hrs
Description: Growth inhibition of human Panel ovarian (Carcinoma cell lines) incubated for 48 hrs by sulforhodamine B assay

[40] = test system: Panel renal (Carcinoma cell lines); assay: cells; type: functional; details: Homo sapiens, time 48 hrs
Description: Growth inhibition of human Panel renal (Carcinoma cell lines) incubated for 48 hrs by sulforhodamine B assay

[41] = test system: Panel prostate (Carcinoma cell lines); assay: cells; type: functional; details: Homo sapiens, time 48 hrs
Description: Growth inhibition of human Panel prostate (Carcinoma cell lines) incubated for 48 hrs by sulforhodamine B assay

[42] = test system: Panel breast (Carcinoma cell lines); assay: cells; type: functional; details: Homo sapiens, time 48 hrs
Description: Growth inhibition of human Panel breast (Carcinoma cell lines) incubated for 48 hrs by sulforhodamine B assay

[43] = test system: Panel NCI-60 (60 carcinoma cell lines); assay: cells; type: functional; details: Homo sapiens, time 48 hrs
Description: Growth inhibition of human Panel NCI-60 (60 carcinoma cell lines) incubated for 48 hrs by sulforhodamine B assay

[44] = test system: SR; assay: cells; type: functional; details: Homo sapiens, time 48 hrs
Description: Growth inhibition of human SR cells incubated for 48 hrs by sulforhodamine B assay

[45] = test system: SNB-75; assay: cells; type: functional; details: Homo sapiens, time 48 hrs
Description: Growth inhibition of human SNB-75 cells incubated for 48 hrs by sulforhodamine B assay

[46] = Cytotoxicity against human HFF-1 cells assessed as cell growth inhibition at 10 uM by MTT assay relative to control; type: cell-based; details: read-out: GI
[47] = Cytotoxicity against human HFF-1 cells assessed as cell growth inhibition at 1 uM by MTT assay relative to control; type: cell-based; details: read-out: GI
[48] = Cytotoxicity against human HFF-1 cells assessed as cell growth inhibition at 0.1 uM by MTT assay relative to control; type: cell-based; details: read-out: GI
[49] = Cytotoxicity against human HFF-1 cells assessed as cell growth inhibition by MTT assay; type: cell-based
[50] = test system: LOX IMVI; assay: Growth inhibition of human LOX IMVI cells assessed as growth percentage at 10 uM measured after 48 hrs by sulforhodamine B assay relative to control; type: functional; details: read-out: Activity
[51] = read-out: LC50 (the source's name)

GI50 [1]: 2360 nM | GI50 [2]: 2210 nM | GI50 [3]: 2600 nM | GI50 [6]: 3.16 µM | GI50 [7]: 2940 nM | GI50 [8]: 2510 nM | GI50 [9]: 2430 nM | GI50 [10]: 1820 nM | GI50 [11]: 1820 nM | GI50 [12]: 1750 nM | GI50 [13]: 1760 nM | GI50 [16]: 1980 nM | GI50 [18]: 1650 nM | GI50 [22]: 2920 nM | GI50 [23]: 10.3 µM | GI50 [24]: 3.54 µM | GI50 [29]: 1940 nM | GI50 [30]: 1740 nM | GI50 [31]: 1800 nM | GI50 [33]: 2080 nM | GI50 [34]: 2350 nM | GI50 [36]: 1830 nM | GI50 [37]: 2180 nM | GI50 [38]: 3.02 µM | GI50 [39]: 4.02 µM | GI50 [40]: 3.96 µM | GI50 [41]: 2490 nM | GI50 [42]: 3.33 µM
Structure (SMILES): Clc1cc(Cl)cc(Nc2ccc3c(OCCCN4CCOCC4)cccc3n2)c1
GI50 [4]: 2290 nM | GI50 [5]: 2030 nM | GI50 [14]: 2000 nM | GI50 [15]: 1920 nM | GI50 [17]: 1720 nM | GI50 [19]: 2050 nM | GI50 [20]: 2010 nM | GI50 [21]: 3.9 µM | GI50 [25]: 2390 nM | GI50 [26]: 2260 nM | GI50 [27]: 2380 nM | GI50 [28]: 1510 nM | GI50 [32]: 2510 nM | GI50 [35]: 2530 nM | GI50 [43]: 2570 nM

GI50 [1]: 3740 nM | GI50 [2]: 2050 nM | GI50 [3]: 15600 nM | GI50 [6]: 18.8 µM | GI50 [7]: 11900 nM | GI50 [8]: 11000 nM | GI50 [9]: 5440 nM | GI50 [10]: 19900 nM | GI50 [11]: 5900 nM | GI50 [12]: 1940 nM | GI50 [13]: 2160 nM | GI50 [16]: 3280 nM | GI50 [18]: 1890 nM | GI50 [22]: 14400 nM | GI50 [23]: 13.9 µM | GI50 [24]: 17.8 µM | GI50 [29]: 12900 nM | GI50 [30]: 3210 nM | GI50 [31]: 2110 nM | GI50 [33]: 12300 nM | GI50 [34]: 4240 nM | GI50 [36]: 4850 nM | GI50 [37]: 9250 nM | GI50 [38]: 6.62 µM | GI50 [39]: 15.6 µM | GI50 [40]: 13.2 µM | GI50 [41]: 13400 nM | GI50 [42]: 9.95 µM
Structure (SMILES): CC(C)c1ccc(Nc2ccc3c(OCCCN4CCN(C)CC4)cccc3n2)cc1
GI50 [44]: 2850 nM | GI50 [4]: 11900 nM | GI50 [5]: 10600 nM | GI50 [14]: 11300 nM | GI50 [15]: 3630 nM | GI50 [45]: 12.8 µM | GI50 [17]: 1860 nM | GI50 [19]: 5650 nM | GI50 [20]: 2170 nM | GI50 [21]: 16.1 µM | GI50 [25]: 16400 nM | GI50 [26]: 7280 nM | GI50 [27]: 16500 nM | GI50 [28]: 12900 nM | GI50 [32]: 16900 nM | GI50 [35]: 13200 nM | GI50 [43]: 7760 nM

Structure (SMILES): CN1CCN(CCCOc2cccc3nc(Nc4cc(Cl)cc(Cl)c4)ccc23)CC1
GI50 [1]: 1780 nM | GI50 [2]: 1660 nM | GI50 [3]: 1980 nM | GI50 [4]: 1370 nM | GI50 [5]: 1590 nM | GI50 [6]: 1.95 µM | GI50 [7]: 1720 nM | GI50 [8]: 1560 nM | GI50 [9]: 1840 nM | GI50 [10]: 1640 nM | GI50 [11]: 1940 nM | GI50 [12]: 1420 nM | GI50 [13]: 1410 nM | GI50 [14]: 1720 nM | GI50 [15]: 1720 nM | GI50 [16]: 1720 nM | GI50 [17]: 1580 nM | GI50 [18]: 1670 nM | GI50 [19]: 1970 nM | GI50 [20]: 1950 nM | GI50 [21]: 1.68 µM | GI50 [22]: 1680 nM | GI50 [23]: 2.55 µM | GI50 [24]: 1.94 µM | GI50 [25]: 1780 nM | GI50 [26]: 1670 nM | GI50 [27]: 1740 nM | GI50 [28]: 1490 nM | GI50 [29]: 1760 nM | GI50 [30]: 1380 nM | GI50 [31]: 1570 nM | GI50 [32]: 2500 nM | GI50 [33]: 1690 nM | inhibition at 10 µM [46]: 13.3% | inhibition at 1 µM [47]: 12% | inhibition at 0.1 µM [48]: 12.5% | GI50 [49]: > 10 µM | growth at 10 µM [50]: -5.27% | GI50 [34]: 1800 nM | LC50 (50% lethal concentration) [34]: 100 µM | TGI [34]: 3.96 µM | GI50 [35]: 1710 nM | LC50 (50% lethal concentration) [35]: 8.15 µM | TGI [35]: 3.51 µM | GI50 [36]: 1680 nM | TGI [36]: 3.19 µM | CC50 [36, 51]: 6.1 µM | GI50 [37]: 1720 nM | TGI [37]: 3.26 µM | CC50 [37, 51]: 6.2 µM | GI50 [38]: 1.8 µM | LC50 [38]: 6.62 µM | TGI [38]: 3.43 µM | GI50 [39]: 1.87 µM | LC50 [39]: 9.18 µM | TGI [39]: 4.1 µM | GI50 [40]: 2.07 µM | LC50 (lethal concentration 50%) [40]: 17.1 µM | TGI [40]: 5.56 µM | GI50 [41]: 1730 nM | LC50 (concentration killing 50% of cells) [41]: 5.96 µM | TGI [41]: 3.21 µM | GI50 [42]: 2.06 µM | TGI [42]: 5.67 µM | CC50 [42, 51]: 21.8 µM | GI50 [43]: 1770 nM | TGI [43]: 3.72 µM | CC50 [43, 51]: 8.32 µM
